Where two headings read alike, the source gives them in different places.
Assays:
AA8 = test: Cytotoxicity in AA8 cells (Table 7); assay type: cell-based, chinese hamster; settings: Cricetulus griseus
Text: (§1) In contrast, the activity of the monoalkylating agent temozolomide was enhanced by ABT-888 in these cancer cell lines (see, Tables 1, 3, and 5).

EM9 cells = test: Cytotoxicity in EM9 cells deficient in base excision repair gene XRCC1 (Table 7); assay type: cell-based; settings: for Fold difference in sensitivity (anoxia) / Fold difference in sensitivity (normoxia): AA8 versus EM9
Text: as §1

irs1SF cells = test: Cytotoxicity in HDR impaired irs1SF cells, 2 h treatment, alamar blue (Table 8); assay type: cell-based, chinese hamster; settings: for IC50: Cricetulus griseus
Experimental: (§2) The role of homology-directed DNA repair (HDR) on TH-302 was investigated in wild type and HDR deficient chinese hamster ovary (CHO) cells. […] TH-302 activity can be modulated by pharmacological modulators of both reductases and DNA damage and repair pathways. TH-302 activity can be inhibited by the flavin reductase inhibitor DPI. TH-302 activity was not affected by the PARP inhibitor ABT-888.
(§3) The wild type AA8 cells and the HDR impaired irs1SF and UV41 cells were treated with TH-302 for 2 h, washed, and then incubated for 3 days. At the end of the incubation, viable cells were quantified using alamar blue.

H460 cell lines = test: In vitro cytotoxicity (AlamarBlue) with or without ABT-888, H460; assay type: cell-based; settings: Homo sapiens
Experimental: (§4) The effect of the PARP inhibitor, ABT-888, on TH-302 activity was investigated in three human cancer cell lines: human non small cell lung H460, human melanoma A375, and human colorectal carcinoma HCT116.
(§5) Cells were pretreated with ABT-888 for 1 h under normoxia, and then co-incubated with TH-302 for additional 2 h under either normoxia or hypoxia. After 3 days of incubation in the presence of ABT-888, cell viability was determined using AlamarBlue. For the temozolomide (TMZ) group, cells were co-treated with temozolomide and ABT-888 for 3 days after 1 h pretreatment with ABT-888.

[1] = Modulation of TH-302 activity by the flavin reductase inhibitor DPI; assay type: cell-based; settings: with DPI
Text: as §2

A375 cell lines = test: In vitro cytotoxicity (AlamarBlue) with or without ABT-888, A375; assay type: cell-based; settings: Homo sapiens
Experimental: as §4, §5

[2] = system: multiple human cancer cell lines; test: Hypoxia-enhanced cytotoxicity in vitro; assay type: cell-based
Text: In these examples, pharmacological tools were utilized to test the underlying mechanisms of DNA repair processes involved in the cellular response to TH-302. In vitro cytotoxicity assays were used as the primary read-out.

HCT116 cell lines = test: In vitro cytotoxicity (AlamarBlue) with or without ABT-888, HCT116; assay type: cell-based; settings: Homo sapiens
Experimental: as §4, §5

UV41 cells = test: Cytotoxicity in HDR impaired UV41 cells, 2 h treatment, alamar blue (Table 8); assay type: cell-based, chinese hamster; settings: for IC50: Cricetulus griseus
Experimental: as §2, §3

AA8 cells = test: Cytotoxicity in wild type AA8 cells, 2 h treatment, alamar blue (Table 8); assay type: cell-based, chinese hamster; settings: for IC50: Cricetulus griseus
Experimental: as §2, §3

[3] = CHO-AA8, read-out: IC50 (μM) Anoxia AA8
[4] = CHO-AA8, read-out: IC50 (μM) Normoxia AA8
[5] = read-out: IC50 (μM) Normoxia EM9

Nc1n[n+]([O-])c2ccccc2[n+]1[O-] [Tirapazamine, tirapazamine]
IC50 (AA8; [3]): 50 µM | IC50 (AA8; [4]): > 1000 µM | Fold difference in sensitivity (anoxia) (EM9 cells): 3 fold | IC50 (EM9 cells; read-out: IC50 (μM) Anoxia EM9): 15 µM | IC50 (EM9 cells; [5]): > 1000 µM

Cn1c(COP(=O)(NCCBr)NCCBr)cnc1[N+](=O)[O-] [TH-302]
IC50 (irs1SF cells; N2, read-out: IC50 (μM) N2): 0.5 µM | IC50 (irs1SF cells; air, read-out: IC50 (μM) Air): 95 µM | HCR (irs1SF cells; ratio air/N2): 190 | IC50 (H460 cell lines; NCI-H460, read-out: IC50 (μM) Hypoxia): 0.2 µM | IC50 (H460 cell lines; NCI-H460, read-out: IC50 (μM) Normoxia): 47 µM | TH-302 activity in the presence of the flavin reductase inhibitor DPI [1]: inhibited | IC50 (AA8; [3]): 10 µM | IC50 (AA8; [4]): > 1000 µM | IC50 (A375 cell lines; A-375, read-out: IC50 (μM) Hypoxia): 1.5 µM | IC50 (A375 cell lines; A-375, read-out: IC50 (μM) Normoxia): 230 µM | hypoxia-enhanced cytotoxicity [2]: about 400 fold | IC50 (HCT116 cell lines; HCT-116, read-out: IC50 (μM) Hypoxia): 0.1 µM | IC50 (HCT116 cell lines; HCT-116, read-out: IC50 (μM) Normoxia): 61 µM | IC50 (UV41 cells; N2, read-out: IC50 (μM) N2): 0.02 µM | IC50 (UV41 cells; air, read-out: IC50 (μM) Air): 16 µM | HCR (UV41 cells; ratio air/N2): 800 | IC50 (AA8 cells; CHO-AA8, N2, read-out: IC50 (μM) N2): 1.1 µM | IC50 (AA8 cells; CHO-AA8, air, read-out: IC50 (μM) Air): 340 µM | HCR (AA8 cells; ratio air/N2): 310 | Fold difference in sensitivity (anoxia) (EM9 cells): 1 fold | Fold difference in sensitivity (normoxia) (EM9 cells; normoxia): >1.3 fold | IC50 (EM9 cells; read-out: IC50 (μM) Anoxia EM9): 14 µM | IC50 (EM9 cells; [5]): 760 µM

Cn1nnc2c(C(N)=O)ncn2c1=O [Temozolomide, temozolomide, reference compound]
IC50 (H460 cell lines; NCI-H460, H460, normoxia, 3 days co-treatment after 1 h ABT-888 pretreatment, read-out: IC50 (μM), Normoxia): 540 µM | IC50 (AA8; CHO-AA8, AA8, normoxia, read-out: IC50 (μM) Normoxia AA8): > 1000 µM | IC50 (A375 cell lines; A-375, A375, normoxia, 3 days co-treatment after 1 h ABT-888 pretreatment, read-out: IC50 (μM), Normoxia): 510 µM | IC50 (HCT116 cell lines; HCT-116, HCT116, normoxia, 3 days co-treatment after 1 h ABT-888 pretreatment, read-out: IC50 (μM), Normoxia): 890 µM | Fold difference in sensitivity (normoxia) (EM9 cells; normoxia): >5.9 fold | IC50 (EM9 cells; EM9, normoxia, read-out: IC50 (μM) Normoxia EM9): 168 µM

— US20140171389A1, “METHODS FOR TREATING CANCER” (THRESHOLD PHARMACEUTICALS, INC., priority 2011, published 2014)
